Data reported in patent US20240287052A1, “NOVEL OXAZOLE DERIVATIVE AND PHARMACEUTICAL COMPOSITION FOR PREVENTING OR TREATING ALLERGIC DISEASES COMPRISING THE SAME” (AZCURIS CO., LTD., priority 2021, published 2024).
Like-named read-outs stand apart in the source and are kept apart here.

Biological target: T1, IL33 and ST2 binding (Homo sapiens, UniProt O95760)
T1 sequence (O95760 112-270 limits assumed): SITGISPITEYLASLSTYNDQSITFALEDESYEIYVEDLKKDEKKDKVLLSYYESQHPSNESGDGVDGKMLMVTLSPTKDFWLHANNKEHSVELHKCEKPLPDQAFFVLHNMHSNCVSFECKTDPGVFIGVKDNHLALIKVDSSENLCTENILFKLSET
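Note: plate ELISA with coated Flag-tagged human IL-33 and His-tagged human ST2, bound ST2 detected by anti-His HRP and TMB absorbance at 450 nm, 2 h compound incubation.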

| inhibition (30 µM) [%] | inhibition (100 µM) [%] | SMILES |
| --- | --- | --- |
| 10 | 15 | O=C(NCCCN1CCCC1)c1nc(-c2ccc(C(F)(F)F)cc2)oc1-c1ccccc1[N+](=O)[O-] [Compound 140, 5-(2-Nitrophenyl)-N-(3-(pyrrolidin-1-yl)propyl)-2-(4-(trifluoromethyl)phenyl)oxazole-4-carboxamide] |
| 42 | 102 | CCOC(=O)c1nc(-c2cccc(C(F)(F)F)c2)oc1-c1ccccc1[N+](=O)[O-] [Compound 30, Ethyl 5-(2-nitrophenyl)-2-(3-(trifluoromethyl)phenyl)oxazole-4-carboxylate] |
| 6 | 11 | O=C(c1nc(-c2ccc(C(F)(F)F)cc2)oc1-c1ccccc1[N+](=O)[O-])N1CCCC1 [Compound 138, (5-(2-Nitrophenyl)-2-(4-(trifluoromethyl)phenyl)oxazol-4-yl)(pyrrolidin-1-yl)methanone] |
| 36 | 48 | O=C(c1nc(-c2ccc(C(F)(F)F)cc2)oc1-c1ccccc1[N+](=O)[O-])N1CCN(CCN2CCOCC2)CC1 [Compound 152, (4-(2-Morpholinoethyl)piperazin-1-yl)(5-(2-nitrophenyl)-2-(4-(trifluoromethyl)phenyl)oxazol-4-yl)methanone] |
| 33 | 44 | CN1CCN(CCNC(=O)c2nc(-c3ccc(C(C)(C)C)cc3)oc2-c2ccccc2[N+](=O)[O-])CC1 [Compound 269, 2-(4-(tert-Butyl)phenyl)-N-(2-(4-methylpiperazin-1-yl)ethyl)-5-(2-nitrophenyl)oxazole-4-carboxamide] |
| 9 | 8 | O=C(Nc1ccccn1)c1nc(-c2ccc(C(F)(F)F)cc2)oc1-c1ccccc1[N+](=O)[O-] [Compound 143, 5-(2-Nitrophenyl)-N-(pyridin-2-yl)-2-(4-(trifluoromethyl)phenyl)oxazole-4-carboxamide] |
| 2 | 0 | CN1CCN(CCNC(=O)c2nc(-c3ccc(C4CC4)cc3)oc2-c2ccccc2)CC1 [Compound 280, 2-(4-Cyclopropylphenyl)-N-(2-(4-Methylpiperazin-1-yl)ethyl)-5-phenyloxazole-4-carboxamide] |
| -11 | -3 | O=C(NCc1ccncc1)c1nc(-c2ccc(C(F)(F)F)cc2)oc1-c1ccccc1[N+](=O)[O-] [Compound 141, 5-(2-Nitrophenyl)-N-(pyridin-4-ylmethyl)-2-(4-(trifluoromethyl)phenyl)oxazole-4-carboxamide] |
| -30 | -19 | CCOC(=O)N1CCN(C(=O)c2nc(-c3ccc(C(F)(F)F)cc3)oc2-c2ccccc2[N+](=O)[O-])CC1 [Compound 163, Ethyl 4-(5-(2-nitrophenyl)-2-(4-(trifluoromethyl)phenyl)oxazole-4-carbonyl)piperazine-1-carboxylate] |
| 54 | 60 | O=C(NCCN1CCCCC1)c1nc(-c2ccc(C(F)(F)F)cc2)oc1-c1ccccc1[N+](=O)[O-] [Compound 173, 5-(2-Nitrophenyl)-N-(2-(piperidin-1-yl)ethyl)-2-(4-(trifluoromethyl)phenyl)oxazole-4-carboxamide] |
| 27 | 53 | CC(=O)Nc1ccc(NC(=O)c2nc(-c3ccc(C(F)(F)F)cc3)oc2-c2ccccc2[N+](=O)[O-])cc1 [Compound 175, N-(4-Acetamidophenyl)-5-(2-nitrophenyl)-2-(4-(trifluoromethyl)phenyl)oxazole-4-carboxamide] |
| 19 | 55 | COc1cccc(-c2nc(C(=O)NCCN(C)C)c(-c3ccccc3)o2)c1 [Compound 208, N-(2-(Dimethylamino)ethyl)-2-(3-methoxyphenyl)-5-phenyloxazole-4-carboxamide] |
| 6 | 1 | CN(C)CCNC(=O)c1nc(-c2ccc3ccccc3c2)oc1-c1ccccc1[N+](=O)[O-] [Compound 259, N-(2-(Dimethylamino)ethyl)-2-(naphthalen-2-yl)-5-(2-nitrophenyl)oxazole-4-carboxamide] |
| 0 | 38 | CN(C)CCNC(=O)c1nc(-c2ccc(Cl)cc2)oc1-c1ccccc1 [Compound 244, 2-(4-Chlorophenyl)-N-(2-(dimethylamino)ethyl)-5-phenyloxazole-4-carboxamide] |
| 12 | -12 | CC(C)N1CCN(C(=O)c2nc(-c3ccc(C(F)(F)F)cc3)oc2-c2ccccc2[N+](=O)[O-])CC1 [Compound 168, (4-Isopropylpiperazin-1-yl)(5-(2-nitrophenyl)-2-(4-(trifluoromethyl)phenyl)oxazol-4-yl)methanone] |
| -24 | -9 | CC(C)N(CCN1CCN(C(=O)c2nc(-c3ccc(C(F)(F)F)cc3)oc2-c2ccccc2[N+](=O)[O-])CC1)C(C)C [Compound 167, (4-(2-(Diisopropylamino)ethyl)piperazin-1-yl)(5-(2-nitrophenyl)-2-(4-(trifluoromethyl)phenyl)oxazol-4-yl)methanone] |
| 20 | 54 | CCOC(=O)c1nc(-c2ccc3ccccc3c2)oc1-c1ccccc1[N+](=O)[O-] [Compound 84, Ethyl 2-(naphthalen-2-yl)-5-(2-nitrophenyl)oxazole-4-carboxylate] |
| 45 | 79 | CN(C)CCN1CCN(C(=O)c2nc(-c3ccc(C(F)(F)F)cc3)oc2-c2ccccc2)CC1 [Compound 129] |
| 2 | -23 | CN1CCN(CCNC(=O)c2nc(-c3ccc([N+](=O)[O-])cc3)oc2-c2ccccc2)CC1 [Compound 276, N-(2-(4-Methylpiperazin-1-yl)ethyl)-2-(4-nitrophenyl)-5-phenyloxazole-4-carboxamide] |
| 7 | 2 | CN(C)CCNC(=O)c1nc(-c2cccc(OC(F)(F)F)c2)oc1-c1ccccc1 [Compound 199, N-(2-(Dimethylamino)ethyl)-5-phenyl-2-(3-(trifluoromethoxy)phenyl)oxazole-4-carboxamide] |
| -12 | 33 | COc1ccc(-c2nc(C(=O)NCCN3CCN(C)CC3)c(-c3ccccc3[N+](=O)[O-])o2)cc1 [Compound 215, 2-(4-Methoxyphenyl)-N-(2-(4-methylpiperazin-1-yl)ethyl)-5-(2-nitrophenyl)oxazole-4-carboxamide] |
| 23 | 29 | CCN(CC)CCNC(=O)c1nc(-c2ccc(C(C)(C)C)cc2)oc1-c1ccccc1 [Compound 267, 2-(4-(tert-butyl)phenyl)-N-(2-(diethylamino)ethyl)-5-phenyloxazole-4-carboxamide] |
| 10 | 12 | CCOC(=O)c1nc(-c2ccc(C(C)(C)C)cc2)oc1-c1ccc(NC(C)=O)cc1 [Compound 111, Ethyl 5-(4-acetamidophenyl)-2-(4-(tert-butyl)phenyl)oxazole-4-carboxylate] |
| 29 | 35 | CN1CCN(CCNC(=O)c2nc(-c3ccc(N(C)C)cc3)oc2-c2ccccc2[N+](=O)[O-])CC1 [Compound 264, 2-(4-(Dimethylamino)phenyl)-N-(2-(4-methylpiperazin-1-yl)ethyl)-5-(2-nitrophenyl)oxazole-4-carboxamide] |
